Patent US10213444B2, “Composition and method for treating bipolar disorder” (LAUREATE INSTITUTE FOR BRAIN RESEARCH, priority 2014, dated 2019)

Tests used:
[1] = test system: subjects with bipolar disorder during a current major depressive episode (bipolar depression); assay: Double-blind, placebo-controlled 2×2 trial in bipolar depression (MADRS, YMRS); type: in vivo, human; conditions: LOCF; for Percentage of female responders: female patients; for Percentage of female responders / Percentage of responders (BMI >30): >50% reduction in MADRS; for Percentage of responders (BMI >30): subset BMI >30; for Percentage of responders: total sample, response = greater than 50% reduction in MADRS baseline to final, 6 weeks, ASA 81 mg b.i.d., minocycline 100 mg b.i.d. p.o.
Experimental: (§1) The above pharmaceutical compound comprising minocycline and acetylsalicylic acid was tested using a double-blind, placebo-controlled trial with a 2×2design. The study examined subjects with bipolar disorder during a current major depressive episode (“bipolar depression”). Most subjects were either partial responders to existing antidepressant and/or mood stabilizing treatments or were treatment resistant. The subjects were randomized to receive either (1) placebo-minocycline plus placebo-acetylsalicylic acid, or (2) active-minocycline (100 mg b.i.d.) plus placebo-acetylsalicylic acid, or (3) placebo-minocycline plus active-acetylsalicylic acid (81 mg b.i.d.), or (4) active-minocycline (100 mg b.i.d.) plus active-acetylsalicylic acid (81 mg b.i.d.) (FIG. 1). Clinical symptoms of depression and mania were measured using the Montgomery-Asberg Depression Rating Scale (MADRS) and the Young Mania Rating Scale (YMRS), respectively.
For the data produced below, the treatment method for administering the combination of each composition, including the active-minocycline and active-acetylsalicylic acid, entailed the following steps: administer ASA 81 mg p.o b.i.d and minocycline 100 mg p.o b.i.d. As depicted in FIG. 1, each session number (total of 7) is encircled, with the timing between sessions indicated in weeks with a 2business day window on either side of visit target date to complete the visit. Session 1(far left) is the baseline and session 7(far right) is the study end. The study duration is 6weeks.
Of the 99patients who were randomized, 87started treatment and completed a sufficient number of sessions (at least 3weeks of treatment) to be included in the last-observation carried forward analysis (LOCF) shown below. For these 87subjects, 79completed the entire study. Eight subjects dropped-out early, all from the active treatment groups—4from minocycline+ASA, 3from ASA+placebo, and one from minocycline+placebo. Since existing anti-depressant medications generally begin to exert antidepressant effects within 3weeks, in this trial, data from patients with at least 3weeks of treatment were including in the LOCF analysis.
Response to medication/placebo was defined as a greater than 50% reduction in MADRS scores between the baseline and final assessment. Table 2provides results reflecting percentage of treatment responders by group, and relative risk reduction (RRR), absolute risk reduction (ARR) and, number needed to treat (NNT) for the combination ASA/minocycline treatment.

[2] = administered orally; cited from earlier work
[3] = test system: patients with major depressive disorder; assay: Same trial, subset of patients with major depressive disorder (unipolar depression); type: in vivo, human; conditions: subset with major depressive disorder (n=10)
Experimental: as §1
In the subset of patients with major depressive disorder (n=10), 75% responded to the combination of minocycline+ASA (3/4) compared to 50% response in the minocycline+placebo group (1/2), and 0% in the ASA+placebo group (0/3). The data document that the combination of minocycline and ASA has effectiveness for the treatment of additional forms of non-bipolar depression such as major depressive disorder and dysthymia. […]

[4] = test system: individuals receiving lithium treatment (bipolar symptoms); conditions: cited from earlier work
[5] = administered orally; cited from earlier work; remark: listed apart in the source

| SMILES | Percentage of female responders [1] | Percentage of responders (BMI >30) [1] | Percentage of responders [1] | brain to blood ratio [2] | level within brain as percent of level within blood plasma [2] | percent responded (MADRS response) [3] | effect on medication events ([4]; high-dose aspirin or other anti-inflammatory classes added to lithium treatment) | less likely to have a medication event ([4]; low-dose (≤81 to 162 mg/day) aspirin added to lithium treatment) | level within cerebrospinal fluid as percent of plasma concentrations [5] |
| --- | --- | --- | --- | --- | --- | --- | --- | --- | --- |
| CC(=O)Oc1ccccc1C(=O)O [ASA, acetylsalicylic acid] | 50% | 44% | 56% | 0.32 | 32% | 0% | increase in medication events | 17% |  |
| CN(C)c1ccc(O)c2c1C[C@H]1C[C@H]3[C@H](N(C)C)C(O)=C(C(N)=O)C(=O)[C@@]3(O)C(O)=C1C2=O [minocycline] | 55% | 38% | 38% |  |  | 50% |  |  | 11-56% |
